Measured values reported in article PMC10132767, “Bacterial catabolism of membrane phospholipids links marine biogeochemical cycles” (Science Advances, 2023).

Target: T1, EtoX (TRAP transporter, periplasmic ethanolamine binding protein, MED193_10041)
T1 construct: full-length codon optimized, C-terminal His-tag
Test: microscale thermophoresis with purified recombinant EtoX
Set-up: species or system Phaeobacter sp. MED193

NCCO [ethanolamine]
Kd: 7.88 ± 1.88 µM
